How the values were obtained:
U937 cells = assay: TNF alpha release by LPS-treated U937 cells; format: cell-based; settings: for TNF alpha, % vehicle control: 10 uM cmpd, 0 uM BC30
PDE8A [1] = target: T1, PDE8A (Mus musculus, UniProt O88502); assay: fbp1-lacZ β-galactosidase reporter assay, PDE8A strain; format: cell-based, murine; settings: strain DDP13 (PDE8A)
T1 construct: targets used in the assays are full-length proteins (as opposed to simply the catalytic domain); expressed in transfected cells; host or cells: Schizosaccharomyces pombe, PDE gene integrated in place of cgs2 (strains CHP1141, DDP13)
T1 sequence (O88502 1-823): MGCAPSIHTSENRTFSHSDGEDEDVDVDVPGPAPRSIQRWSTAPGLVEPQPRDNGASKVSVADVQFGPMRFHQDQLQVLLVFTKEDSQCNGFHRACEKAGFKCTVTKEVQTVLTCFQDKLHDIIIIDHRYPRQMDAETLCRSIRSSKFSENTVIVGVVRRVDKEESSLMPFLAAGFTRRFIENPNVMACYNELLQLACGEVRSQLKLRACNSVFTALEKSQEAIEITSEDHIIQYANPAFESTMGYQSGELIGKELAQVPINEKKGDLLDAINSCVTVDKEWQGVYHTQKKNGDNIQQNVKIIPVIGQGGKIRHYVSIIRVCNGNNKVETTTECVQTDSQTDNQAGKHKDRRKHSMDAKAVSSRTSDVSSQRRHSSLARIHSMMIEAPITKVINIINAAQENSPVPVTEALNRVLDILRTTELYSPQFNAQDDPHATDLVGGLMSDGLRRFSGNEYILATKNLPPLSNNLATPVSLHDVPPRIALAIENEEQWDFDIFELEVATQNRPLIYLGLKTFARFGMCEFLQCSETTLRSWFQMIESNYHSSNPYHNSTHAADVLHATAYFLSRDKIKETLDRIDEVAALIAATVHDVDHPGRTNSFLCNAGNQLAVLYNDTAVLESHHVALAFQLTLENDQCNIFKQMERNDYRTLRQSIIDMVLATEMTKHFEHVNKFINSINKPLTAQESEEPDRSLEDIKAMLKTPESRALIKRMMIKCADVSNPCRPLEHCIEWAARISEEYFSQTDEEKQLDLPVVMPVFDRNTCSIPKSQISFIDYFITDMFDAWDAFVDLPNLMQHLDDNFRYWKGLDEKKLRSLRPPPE
Procedure: (§1) β-galactosidase assays and characterization of 5FOA-sensitivity were carried out as previously described^10. cAMP assays were performed on exponential phase cells grown in EMM complete medium (3% glucose), using the Assay Designs cAMP EIA kit, according to manufacturer's instructions (Assay Designs, Ann arbor, Mich.).
(§2) The effect of known PDE inhibitors on the expression of the fbp1-lacZ fusion in murine PDE-expressing strains was tested. […] For Table 4 β-galactosidase activity was determined from 3 to 4 independent exponential phase cultures. The average±SD represents specific activity per milligram of soluble protein.

PDE7B [2] = target: T2, PDE7B (Homo sapiens, UniProt Q9NP56); assay: in vitro enzyme assay, PDE7B catalytic domain from E. coli, hydrolysis of cAMP to AMP; format: biochemical; design: The PDE7B catalytic domain was expressed in and purified from E. coli; made in house; host or cells: E. coli; settings: AC200 = [Compound] that doubles PDE activity; read-out: IC50 (or AC200), PDE7B
Procedure: The PDE7B catalytic domain was expressed in and purified from E. coli and tested for activity in an in vitro enzyme assay, measuring the hydrolysis of cAMP to AMP. Four dilutions of the enzyme preparation were tested at various compound concentrations (X axis). The percent of cAMP hydrolyzed is plotted on the Y axis.
Target sequence in this assay (Q9NP56 97-420 limits assumed, species assumed): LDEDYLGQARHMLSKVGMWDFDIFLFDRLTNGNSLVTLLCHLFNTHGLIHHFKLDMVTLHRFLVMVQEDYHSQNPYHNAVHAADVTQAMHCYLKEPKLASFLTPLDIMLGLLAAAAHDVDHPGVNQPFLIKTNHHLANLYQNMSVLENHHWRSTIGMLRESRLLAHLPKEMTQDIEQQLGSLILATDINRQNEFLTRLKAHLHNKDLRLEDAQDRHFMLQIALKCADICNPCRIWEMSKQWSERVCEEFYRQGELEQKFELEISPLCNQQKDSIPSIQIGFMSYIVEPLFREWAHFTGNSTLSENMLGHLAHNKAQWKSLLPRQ

[3] = system: PDE2A, PDE4A, PDE4B, Cgs2; assay: Parallel high throughput 5FOA growth screens of bioactive libraries; format: cell-based, murine PDEs; yeast Cgs2; settings: 3,120 bioactive compounds, average 20 μM
Procedure: High throughput drug screens were carried out at the Broad Institute's Chemical Biology Program screening facility (Broad Institute, Cambridge, Mass.). Depending upon the strain, cultures were pregrown to exponential phase in EMM complete medium containing from 0.5 to 2.5 mM cAMP to repress fbp1-ura4 transcription. […] Starting cell concentrations ranged from 0.5×10^5 to 4×10^5 cells/ml depending on the screening strain. […] Other positive control dishes contained 5 mM cAMP in the 5FOA medium. Cultures were grown for 48 hours at 30° C., sealed in an airtight container with moist paper towels to prevent evaporation. Optical densities (OD600) of cultures were measured using a microplate reader. Bioinformatic analysis of the results to determine composite Z scores was performed as previously described^30, 31.

PDE7B [4] = target: T2, PDE7B; assay: 5FOA growth assay in fission yeast strain expressing PDE7B; format: cell-based; design: targets used in the assays are full-length proteins (as opposed to simply the catalytic domain); expressed in transfected cells; host or cells: Schizosaccharomyces pombe; settings: OD600 0.6; read-out: ED50 for 5FOA growth assays, PDE7B
Procedure: PDE inhibition allows growth in 5FOA medium as measured by optical density after 48 hours incubation at 30° C. Compound BC12 and six structural analogs were tested for growth stimulation.
Cells were pregrown in EMM medium [MP Biomedicals (Solon, Ohio), 3% glucose, filter-sterilized to avoid carmelization, which would introduce variability into the optical density of the medium] containing from 0 mM to 2.5 mM cAMP (or either 0.5 mM or 1.0 mM cGMP). This was to repress expression of the fbp1-ura4 reporter prior to exposure of cells to 5FOA medium. Cells were grown at 30° C. to exponential phase (approximately 10^7 cells/ml). Cells were collected by centrifugation and resuspended in 5FOA medium, and 25 μl were transferred to 384-well microtiter dishes (untreated, with flat clear bottoms) that had been pre-filled with 25 μl 5FOA medium and pre-pinned with 100 nl of compounds (stock solutions were generally 10 mM). Starting cell concentrations ranged from 0.5×10^5 to 4×10^5 cells/ml depending on the screening strain. […] Other positive control dishes contained 5 mM cAMP in the 5FOA medium for PDEs that lack appropriate control compounds. Cultures were grown for 48 hours at 30° C., sealed in an airtight container with moist paper towels to prevent evaporation. Optical densities (OD600) of cultures were measured using a microplate reader. Bioinformatic analysis of the results to determine composite Z scores was performed as previously described (1, 3).
Target sequence in this assay (Q9NP56 whole entry, species assumed, the tested form may be a part): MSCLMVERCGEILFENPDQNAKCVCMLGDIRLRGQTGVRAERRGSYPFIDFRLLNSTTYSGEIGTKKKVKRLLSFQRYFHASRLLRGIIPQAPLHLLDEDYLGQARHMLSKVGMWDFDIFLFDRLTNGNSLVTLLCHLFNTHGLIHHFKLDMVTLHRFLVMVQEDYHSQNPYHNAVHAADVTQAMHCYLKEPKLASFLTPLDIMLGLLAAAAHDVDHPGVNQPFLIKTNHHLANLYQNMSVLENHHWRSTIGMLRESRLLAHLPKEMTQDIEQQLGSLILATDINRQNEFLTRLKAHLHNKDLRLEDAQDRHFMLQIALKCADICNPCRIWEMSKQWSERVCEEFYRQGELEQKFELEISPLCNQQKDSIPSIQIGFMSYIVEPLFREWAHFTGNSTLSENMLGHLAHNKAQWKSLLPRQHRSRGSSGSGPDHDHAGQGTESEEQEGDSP

Cgs2 = target: T3, Cgs2 (Schizosaccharomyces pombe, UniProt P36599); assay: fbp1-lacZ β-galactosidase reporter assay, Cgs2 strain; format: cell-based, S. pombe; settings: strain CHP861 (Cgs2)
T3 construct: expressing either the wild-type S. pombe Cgs2^+ PDE; endogenous in cells; host or cells: Schizosaccharomyces pombe strain CHP861
T3 sequence (P36599 whole entry): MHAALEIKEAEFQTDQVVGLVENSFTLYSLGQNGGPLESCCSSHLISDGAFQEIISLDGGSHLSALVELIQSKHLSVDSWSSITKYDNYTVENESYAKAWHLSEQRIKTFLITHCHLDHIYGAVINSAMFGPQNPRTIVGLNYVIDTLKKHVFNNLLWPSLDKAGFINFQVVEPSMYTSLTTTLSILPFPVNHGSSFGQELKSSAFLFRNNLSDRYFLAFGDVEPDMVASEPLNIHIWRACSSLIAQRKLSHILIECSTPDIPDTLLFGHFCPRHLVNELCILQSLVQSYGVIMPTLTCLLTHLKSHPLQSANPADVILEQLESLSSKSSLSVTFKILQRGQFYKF
Procedure: as §1, §2

PDE7A [5] = target: T4, PDE7A (Homo sapiens, UniProt Q13946); assay: 5FOA growth assay in fission yeast strain expressing PDE7A; format: cell-based; design: targets used in the assays are full-length proteins (as opposed to simply the catalytic domain); expressed in transfected cells; host or cells: Schizosaccharomyces pombe, PDE gene integrated in place of cgs2; settings: OD600 0.6; read-out: ED50 for 5FOA growth assays, PDE7A
T4 sequence (Q13946 whole entry, the tested form may be a part): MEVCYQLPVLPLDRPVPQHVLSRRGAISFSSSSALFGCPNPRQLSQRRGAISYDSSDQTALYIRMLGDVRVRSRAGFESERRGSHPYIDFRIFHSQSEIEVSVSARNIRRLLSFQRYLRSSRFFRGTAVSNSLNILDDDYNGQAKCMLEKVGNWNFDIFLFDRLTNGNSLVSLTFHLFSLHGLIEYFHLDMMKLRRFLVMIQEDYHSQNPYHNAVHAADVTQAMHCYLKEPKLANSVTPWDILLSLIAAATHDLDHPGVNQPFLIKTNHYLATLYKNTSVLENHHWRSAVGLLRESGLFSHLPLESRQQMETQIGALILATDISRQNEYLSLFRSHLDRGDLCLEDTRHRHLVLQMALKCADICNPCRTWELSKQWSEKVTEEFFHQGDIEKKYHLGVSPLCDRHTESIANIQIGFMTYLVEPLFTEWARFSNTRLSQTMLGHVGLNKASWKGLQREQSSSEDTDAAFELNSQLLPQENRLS
In short: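 Growth stimulation, reported as composite Z scores, was read as OD600 after 48 h at 30 °C in 5FOA medium. Before this, reporter (fbp1-ura4) yeast were grown at 30 °C in EMM with 0–2.5 mM cAMP or 0.5/1.0 mM cGMP to repress the reporter, then exposed to 100 nl pinned compound (stocks generally 10 mM).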

PDE8A [6] = target: T1, PDE8A; assay: cAMP levels in yeast strain expressing PDE8A; format: cell-based, murine; settings: rolipram treatment
Procedure: Values represent the average and SD of two or three independent experiments. […] The strains used are as in FIG. 5A, together with strain CHP1141 (PDE8A). Values represent the average and SD of two or three independent experiments.
as §1
Thus, PDE inhibition can be indirectly quantitated by measuring the effect of a compound on cAMP levels in target yeast strains.

Cgs2-2 = assay: fbp1-lacZ β-galactosidase reporter assay, Cgs2-2 strain; format: cell-based, S. pombe; settings: strain LWP98 (Cgs2-2)
Procedure: as §1, §2

PDE4B = PDE4B (Homo sapiens, UniProt Q07343); assay: in vitro enzyme assay PDE4B (Table 7); format: biochemical; settings: 2 micromolar compound; read-out: percent of PDE activity present, PDE4B
Sequence of PDE4B (Q07343 whole entry, species assumed, the tested form may be a part): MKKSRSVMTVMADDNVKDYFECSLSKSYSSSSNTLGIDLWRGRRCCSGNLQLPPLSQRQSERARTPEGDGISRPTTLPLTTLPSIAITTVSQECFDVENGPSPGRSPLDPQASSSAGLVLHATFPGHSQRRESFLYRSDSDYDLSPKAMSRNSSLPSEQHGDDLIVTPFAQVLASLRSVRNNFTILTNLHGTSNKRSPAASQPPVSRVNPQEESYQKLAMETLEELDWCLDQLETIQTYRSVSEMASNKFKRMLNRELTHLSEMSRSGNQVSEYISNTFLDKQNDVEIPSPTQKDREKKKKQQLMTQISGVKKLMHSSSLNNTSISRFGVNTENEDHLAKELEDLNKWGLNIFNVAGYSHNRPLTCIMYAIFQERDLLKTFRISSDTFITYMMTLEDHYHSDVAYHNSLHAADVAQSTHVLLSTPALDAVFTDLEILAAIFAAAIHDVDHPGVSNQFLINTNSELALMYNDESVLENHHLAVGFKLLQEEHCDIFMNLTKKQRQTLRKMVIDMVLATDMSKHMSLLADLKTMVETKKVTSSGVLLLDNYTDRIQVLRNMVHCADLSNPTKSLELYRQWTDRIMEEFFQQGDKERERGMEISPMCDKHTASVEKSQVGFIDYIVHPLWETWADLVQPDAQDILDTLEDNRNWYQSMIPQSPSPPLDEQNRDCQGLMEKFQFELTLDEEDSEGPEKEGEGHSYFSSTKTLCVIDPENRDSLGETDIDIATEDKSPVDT

PDE4D2-CAT = target: T5, PDE4D2-CAT (Homo sapiens, UniProt Q08499); assay: in vitro enzyme assay, catalytic fragment of PDE4D2 (residues 86-413); format: biochemical; settings: catalytic fragment; AC200 = [Compound] that doubles PDE activity; read-out: IC50 (or AC200), PDE4D2-CAT
T5 construct: 86-413; made in house; host or cells: E. coli
T5 sequence (Q08499 388-715): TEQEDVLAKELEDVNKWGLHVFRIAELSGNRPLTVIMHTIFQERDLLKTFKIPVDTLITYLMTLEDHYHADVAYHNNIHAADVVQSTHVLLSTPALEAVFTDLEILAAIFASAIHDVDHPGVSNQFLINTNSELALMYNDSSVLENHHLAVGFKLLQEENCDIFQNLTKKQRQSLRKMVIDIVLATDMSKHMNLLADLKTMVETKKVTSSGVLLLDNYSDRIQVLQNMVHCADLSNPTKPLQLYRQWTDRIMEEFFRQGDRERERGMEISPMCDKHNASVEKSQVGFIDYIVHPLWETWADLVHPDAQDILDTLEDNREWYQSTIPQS

PDE4B2 = PDE4B2 (Homo sapiens, UniProt Q07343); assay: in vitro enzyme assay, E. coli expressed and purified PDE4B2; format: biochemical; design: targets used in the assays are full-length proteins (as opposed to simply the catalytic domain); settings: read-out: IC50 (or AC200), PDE4B2
Sequence of PDE4B2 (Q07343 1-564 isoform Q07343-2, species assumed): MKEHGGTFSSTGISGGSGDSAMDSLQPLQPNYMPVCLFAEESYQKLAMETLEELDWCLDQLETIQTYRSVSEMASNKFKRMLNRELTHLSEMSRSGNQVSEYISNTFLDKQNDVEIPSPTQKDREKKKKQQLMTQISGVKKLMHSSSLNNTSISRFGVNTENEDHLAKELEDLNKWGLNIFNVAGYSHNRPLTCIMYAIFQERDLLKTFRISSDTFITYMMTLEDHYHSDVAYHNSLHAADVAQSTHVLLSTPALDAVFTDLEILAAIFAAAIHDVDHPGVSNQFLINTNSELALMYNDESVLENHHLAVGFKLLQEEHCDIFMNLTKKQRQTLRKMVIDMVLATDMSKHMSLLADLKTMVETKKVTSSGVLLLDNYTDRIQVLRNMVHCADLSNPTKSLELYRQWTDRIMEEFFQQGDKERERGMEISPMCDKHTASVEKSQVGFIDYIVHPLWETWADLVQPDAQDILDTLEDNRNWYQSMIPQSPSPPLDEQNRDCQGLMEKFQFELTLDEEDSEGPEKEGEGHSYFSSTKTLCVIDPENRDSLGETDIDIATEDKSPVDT

PDE4D = PDE4D (Homo sapiens, UniProt Q08499); assay: in vitro enzyme assay PDE4D (Table 7); format: biochemical; settings: 2 micromolar compound; read-out: percent of PDE activity present, PDE4D
Sequence of PDE4D (Q08499 whole entry): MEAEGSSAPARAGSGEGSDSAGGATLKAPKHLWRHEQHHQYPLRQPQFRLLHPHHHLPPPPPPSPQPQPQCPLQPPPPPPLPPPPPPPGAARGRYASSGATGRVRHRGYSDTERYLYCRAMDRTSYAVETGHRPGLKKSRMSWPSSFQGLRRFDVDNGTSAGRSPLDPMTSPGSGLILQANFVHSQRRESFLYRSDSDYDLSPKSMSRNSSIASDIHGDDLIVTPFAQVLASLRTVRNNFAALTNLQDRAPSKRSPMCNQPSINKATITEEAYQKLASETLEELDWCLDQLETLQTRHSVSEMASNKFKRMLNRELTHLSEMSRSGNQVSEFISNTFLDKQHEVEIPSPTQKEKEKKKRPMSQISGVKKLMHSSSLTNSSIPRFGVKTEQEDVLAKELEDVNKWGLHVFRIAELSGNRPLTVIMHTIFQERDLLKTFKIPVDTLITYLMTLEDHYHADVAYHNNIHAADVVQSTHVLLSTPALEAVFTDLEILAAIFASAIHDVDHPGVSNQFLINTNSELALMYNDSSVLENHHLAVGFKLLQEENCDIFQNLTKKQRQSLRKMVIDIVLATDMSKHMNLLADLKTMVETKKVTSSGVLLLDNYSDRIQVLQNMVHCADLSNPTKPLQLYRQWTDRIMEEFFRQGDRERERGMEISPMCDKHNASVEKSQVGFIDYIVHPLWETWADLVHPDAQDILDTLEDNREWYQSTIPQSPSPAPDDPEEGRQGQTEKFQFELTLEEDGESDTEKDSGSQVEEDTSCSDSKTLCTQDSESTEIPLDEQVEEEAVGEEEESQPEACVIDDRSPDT

PDE4A = PDE4A (Homo sapiens, UniProt P27815); assay: in vitro enzyme assay PDE4A (Table 7); format: biochemical; settings: 2 micromolar compound; read-out: percent of PDE activity present, PDE4A
Sequence of PDE4A (P27815 whole entry, species assumed): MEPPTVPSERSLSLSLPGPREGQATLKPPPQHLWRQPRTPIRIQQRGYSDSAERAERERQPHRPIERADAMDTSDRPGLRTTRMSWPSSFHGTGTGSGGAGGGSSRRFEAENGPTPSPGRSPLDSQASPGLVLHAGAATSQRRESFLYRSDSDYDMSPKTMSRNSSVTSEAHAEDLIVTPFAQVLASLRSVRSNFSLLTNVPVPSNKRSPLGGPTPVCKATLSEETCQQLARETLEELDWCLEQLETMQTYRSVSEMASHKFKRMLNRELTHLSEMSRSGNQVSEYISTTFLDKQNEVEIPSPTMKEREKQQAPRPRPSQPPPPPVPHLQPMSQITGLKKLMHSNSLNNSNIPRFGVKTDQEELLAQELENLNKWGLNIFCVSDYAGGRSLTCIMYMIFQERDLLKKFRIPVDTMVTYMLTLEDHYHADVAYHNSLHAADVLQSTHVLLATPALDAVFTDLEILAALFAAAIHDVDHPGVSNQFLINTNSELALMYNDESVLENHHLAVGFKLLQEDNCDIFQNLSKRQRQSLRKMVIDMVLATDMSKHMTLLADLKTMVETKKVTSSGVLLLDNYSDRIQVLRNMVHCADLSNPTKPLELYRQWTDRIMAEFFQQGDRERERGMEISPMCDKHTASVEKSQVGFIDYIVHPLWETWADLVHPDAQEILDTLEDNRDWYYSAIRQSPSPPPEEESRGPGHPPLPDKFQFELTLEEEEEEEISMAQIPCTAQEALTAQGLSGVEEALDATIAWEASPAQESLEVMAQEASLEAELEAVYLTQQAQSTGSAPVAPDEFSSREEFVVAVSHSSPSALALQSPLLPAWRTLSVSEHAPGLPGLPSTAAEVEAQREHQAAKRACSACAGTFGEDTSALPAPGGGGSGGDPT

PDE7A [7] = target: T4, PDE7A; assay: in vitro enzyme assay PDE7A; format: biochemical; design: made in house; host or cells: E. coli

## COc1ccc(C2CNC(=O)C2)cc1OC1CCCC1 (stereo not shown) [Rolipram, reference compound]
U937 cells; 3 HOURS
  TNF: 3497 pg/mL
  TNF alpha (EtoH = 100.0): 86.2
  TNF, % EtOH cntrl: 72.4%
U937 cells; 20 HOURS
  TNF: 9362 pg/mL
  TNF alpha (EtoH = 100.0): 86.3
  TNF, % EtOH cntrl: 68.4%
PDE8A [1]; 50 μM Rolipram
  β-galactosidase activity: 253 ± 46
PDE8A [1]; 100 μM Rolipram
  β-galactosidase activity: 237 ± 67
PDE7B [2]
  IC50: > 2 µM
[3]
  hit in high throughput screens (promotes 5FOA^R growth), in words: only affected the PDE4A- and PDE4B-expressing strains
PDE7B [4]
  EC50: > 200 µM
Cgs2; 50 μM Rolipram, specific activity per milligram of soluble protein, average ± SD
  β-galactosidase activity: 1807 ± 446
Cgs2; 100 μM Rolipram
  β-galactosidase activity: 1784 ± 429
PDE7A [5]
  EC50: > 200 µM
PDE8A [6]
  cAMP levels in PDE8A strain: completely insensitive
Cgs2-2; 50 μM Rolipram
  β-galactosidase activity: 19 ± 9
Cgs2-2; 100 μM Rolipram
  β-galactosidase activity: 20 ± 11

## Cc1c(C(=O)Nc2ccc(F)cc2F)sc2ncnc(N3CCC(C)CC3)c12 [Compound 58]
U937 cells; 3 HOURS
  TNF: 3345 pg/mL
  TNF, % EtOH cntrl: 69.2%
U937 cells; 20 HOURS
  TNF: 10030 pg/mL
  TNF, % EtOH cntrl: 73.3%
U937 cells; after 3 h.
  TNF alpha, % vehicle control: 61.2%
U937 cells; after 20 h.
  TNF alpha, % vehicle control: 53.8%
PDE7B [2]
  IC50: > 2 µM
PDE4B
  remaining activity at 2 µM: 16%
PDE4D2-CAT
  IC50: < 2 µM
PDE4B2
  IC50: 1.5 µM
PDE4D
  remaining activity at 2 µM: 31%
PDE4A
  remaining activity at 2 µM: 31%
PDE7A [7]; 2 micromolar compound, read-out: percent of PDE activity present, PDE7A
  remaining activity at 2 µM: 68%
PDE7A [7]; E. coli expressed and purified enzyme, read-out: IC50 (or AC200), PDE7A
  IC50: > 2 µM
